Data published in patent US10464939B2, “Deuterated triazolopyridazine as a kinase modulator” (Janssen Pharmaceutica NV, priority 2014, dated 2019).
Read-outs that look alike come from different tables or passages of the source.

How the values were obtained:
[1] = tested on: SNU-5; assay: Proliferation assay with Alamar blue, Snu-5 cells; format: cell-based; details: Homo sapiens, 96 h, 4 days incubation
Procedure: (§1) Inhibition of Proliferation of Cancer Cells Carrying Met Amplification and Dependent on Met Signaling by the Compound of Formula (I)
(§2) Proliferation Assay with Alamar Blue
(§3) Cells were seeded out in a 96-well plate in 180 μl growth medium. Depending on the growth curve test the amount of cells per well was different for each cell line. The cells were incubated overnight in an incubator at 37° C. in a humidified 5% CO2 atmosphere. The next day: The compound plate was prepared and 4 μl of compound was added to 196 μl of pre-warmed medium. 20 μl of this was added to 180 μl of cells. This was incubated for 4 days after adding the compound at 37° C. in a humidified 5% CO2 atmosphere. After the 4 days 40 μl of Alamar blue solution was added. This was incubated at 37° C. in a humidified 5% CO2 atmosphere for 4 hours (depending on the cell line this was tested before at different hours of incubation during the growth curve test). After the 4 hours the fluorescence was measured at excitation 530 nm, emission 590 nm. The fluorescence of control (DMSO treatment) was taken as 100% and the fluorescence of cells incubated with compounds was calculated against the control in %. So a dose response curve could be made and a IC50 could be calculated.

[2] = tested on: EBC1; assay: Proliferation assay with Alamar blue, EBC-1 cells; format: cell-based; details: Homo sapiens, EBC-1, 96 h, 4 days incubation
Procedure: as §1, §2, §3

[3] = In vivo pharmacokinetic determination of compound (I), compound A and their metabolites in plasma; set-up: species or system New Zealand White Rabbits; details: both sexes, New Zealand White, male and female rabbit; for AUC(0-inf) / AUC(0-t) / Cmax / Tmax / MRT: rabbit, po, 10 mg/kg; for MRT: read-out: MRT (mean residence time)
Source text: In vivo pharmacokinetic determination of compound (I), compound A and their metabolites in New Zealand White Rabbits.
Male New Zealand rabbits (Crl: KBL (NZW), Charles River, France) and female New Zealand rabbits (NZW INRA A1077, Centre Lago) were used. Per compound (compound of formula (I) and compound A) one male and two female rabbits were used with a mean weight of 2.6±0.2 kg. A complete plasma concentration time-profile was obtained from each individual animal. Standard diet and tap water were available ad libitum. Compound of formula (I) and compound A were both dissolved in a 10% (w/v) SBE-B-CD (sulfobutyl ether-beta-cyclodextrin) research grade (Captisol) solution at a final concentration of 1 mg/ml. HCl and PVP K30 were added to facilitate dissolution of the compounds. After total dissolution, the pH was brought up to 2.6/2.7 with NaOH. The formulations were stored at room temperature, protected from light and analysed quantitatively with LC-MS/MS on the day of preparation. Stability of the formulations was checked on the day of dosing. Animals were dosed orally by gavage at 10 ml/kg to obtain a final dose of 10 mg/kg. From each individual dosed animal, blood samples were taken at 30 minutes, 1, 2, 4, 7 and 24 hours after oral administration. Blood was collected by multiple sampling from a lateral ear vein into Multivette® 600 K3E tubes (Sarstedt). Samples were placed immediately on melting ice and plasma was obtained following centrifugation at 4° C. for 10 minutes at approximately 1900×g. All samples were shielded from daylight and stored at ≤−18° C. prior to analysis. Plasma samples were analysed for compound (I), compound A, metabolite 1, metabolite 2, N-desmethyl metabolite 3 (which was calculated on the curve of N-desmethyl metabolite 4) and N-desmethyl metabolite 4 using a qualified research LC-MS/MS method. The key analytical performance (linearity, upper and lower limit of quantification, accuracy and precision) of the method was reported together with the plasma concentrations. The lower limit of quantification (LLOQ) for plasma was 1.00 ng/ml for all compounds. A limited pharmacokinetic analysis was performed using Phoenix™ Professional (Version 6.2.1). A non-compartmental analysis using the lin/log trapezoidal rule with lin/log interpolation was used for all data.

[4] = Phase I, first-in-human trial of compound A; format: in vivo
Procedure: The safety, pharmacokinetics, pharmacodynamics and initial efficacy of the potent and selective c-Met inhibitor with the following structure
(§4) [drawing 2] was explored in a phase I, first-in-human trial. […] Extensive additional pre-clinical experiments were performed to understand the nature of the renal effects. Metabolism data pointed into the direction of the rabbit to be a suitable toxicology species.

[5] = Pre-clinical toxicity tests of compound A in rat; format: in vivo
Procedure: as §4

[6] = Pre-clinical toxicity tests of compound A in dog; format: in vivo
Procedure: as §4

[7] = Toxicology study of compound A in rabbit; format: in vivo
Procedure: as §4

[8] = target: T1, OCT2 (SLC22A2) (Homo sapiens, UniProt O15244); assay: cell-based; format: cell-based
T1 construct: host or cells: Chinese Hamster Ovary (CHO) cells stably transfected with OCT2
T1 sequence (O15244 1-555): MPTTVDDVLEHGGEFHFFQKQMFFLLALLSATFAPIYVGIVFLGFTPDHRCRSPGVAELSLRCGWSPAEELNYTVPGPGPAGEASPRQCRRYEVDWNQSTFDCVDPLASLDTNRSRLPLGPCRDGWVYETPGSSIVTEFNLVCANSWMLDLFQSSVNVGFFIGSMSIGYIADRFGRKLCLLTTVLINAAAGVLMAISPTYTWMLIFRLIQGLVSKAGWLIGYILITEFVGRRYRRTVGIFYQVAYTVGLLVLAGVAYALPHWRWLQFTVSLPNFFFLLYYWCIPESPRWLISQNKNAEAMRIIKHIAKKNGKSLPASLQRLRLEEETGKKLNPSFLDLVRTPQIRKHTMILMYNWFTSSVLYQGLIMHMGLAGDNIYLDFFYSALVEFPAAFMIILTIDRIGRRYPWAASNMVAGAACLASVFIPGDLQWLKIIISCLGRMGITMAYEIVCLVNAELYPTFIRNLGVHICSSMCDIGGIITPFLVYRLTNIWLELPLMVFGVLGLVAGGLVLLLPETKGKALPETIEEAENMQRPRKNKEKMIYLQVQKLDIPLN
Procedure: This was tested using Chinese Hamster Ovary (CHO) cells, parental or stably transfected with OCT2. ^14C-Metformin was used as OCT2 substrate.
CHO cell lines, parental and stably transfected with OCT2 were obtained from Solvo Biotechnology (Hungary).
CHO cells were cultured in DMEM-F12 (Dulbecco's Modified Eagle Medium) supplemented with 0.03 mg/mL L-Proline, 1% L-Glutamine, penicillin (50-100 U/mL), streptomycin (50-100 μg/mL) and 10% (v/v) foetal calf or bovine serum (FCS) further referred to as “CHO culture medium”.
If needed, non-radiolabeled and radio-labeled compounds were mixed to obtain the proper chemical and radioactive concentration. Proper solvent controls were included.
Both, CHO parental and OCT2 cells were seeded into 24 well plates (1 mL/well, 400 000 cells/well) in CHO culture medium.
Transport experiments were performed in Hank's Balanced Salt Solution^+Ca,+Mg (HBSS^+/+) supplemented with 10 mM HEPES at pH 7.4. All media added to the cells and plates were kept at 37° C.
Before the incubation, the cells in each well were washed twice with 1 mL HBSS^+/++10 mM Hepes pH 7.4 at 37° C. Next, the incubation medium, containing reference substrate and the inhibitors (or inhibitor solvent) was added (250 μL/well).
At the time of dose administration (0 min), 150 μL of the dosing solution was sampled in triplicate for determination of initial concentrations by Liquid Scintillation Counting (LSC). During the incubation period, the plates were kept at 37° C.
To stop the reaction, 1.5 mL ice-cold HBSS^+/+ was added to each well and the liquids were aspirated. Again, to each well 2 mL ice-cold HBSS^+/+ was added and aspirated while keeping the plate angled. Following aspiration of the last well, all the wells were aspirated again taking care of not touching the cells.
To lyse the cells, 250 μL of Mammalian Protein Extraction Reagent (M-PER) lysis buffer was added to each well and the plates were shaken for at least 10 minutes (400 rpm). For LSC, a 150 μL sample/well was taken and for protein analysis a 25 μL sample/well. […]

[9] = tested on: CHO Parental cells; assay: Cytotoxicity test (PrestoBlue viability), CHO parental cells; format: cell-based, Chinese Hamster; details: for cytotoxic effects (in words): 100 μM, both CHO parental and OCT2 cells; for Cell Viability %: CHO parental cells, after 1 minute of incubation, compound of formula (I) 100 μM, Triton X-100 1%
Procedure: (§5) Cytotoxicity of the compound of formula (I) was determined at 100 μM, and this in both CHO parental and OCT2 cells. Also a 1% Triton-X100 condition was included, as a positive control cytotoxic reagent. After 1 minute of incubation the supernatant was aspirated, the dry cells washed twice with 1 mL HBSS^+/++10 mM Hepes pH 7.4 (37° C.). After aspiration of the buffer, a 1/10 dilution of the PrestoBlue Viability Reagent (Life Technologies) in HBSS^+/++10 mM Hepes pH 7.4 was added and plates were incubated for 60 minutes at 37° C., protected from light. Each well was sampled (150 μL) in a black 96-well plate and fluorescence was measured (Excitation: 560 nm/12 nm bandwith, Emission: 590 nm/12 nm bandwith).

[10] = tested on: CHO OCT2 cells; assay: Cytotoxicity test (PrestoBlue viability), CHO OCT2 cells; format: cell-based, Chinese Hamster; details: after 1 minute of incubation, compound of formula (I) 100 μM, Triton X-100 1%
Procedure: as §5

[11] = tested on: aldehyde oxidase / CYP450; assay: Metabolisation of compound of formula (I) compared to compound A
Source text: This may decrease renal toxicity.
In case of the present compound of formula (I) more of the N-desmethyl metabolite with the following structure is formed

[12] = Solubility of Metabolite 2; format: physicochemical
Source text: Solubility of Metabolite 2:

[13] = single oral 10 mg/kg of compound (I)
[14] = single oral 10 mg/kg of compound A

Row | Compound | AUC(0-inf) [3, 13] | AUC(0-t) [3, 13] | Cmax [3, 13] | Tmax [3, 13] | MRT [3, 13] | AUC(0-inf) [3, 14] | AUC(0-t) [3, 14] | Cmax [3, 14] | Tmax [3, 14] | MRT [3, 14] | further results
1 | Cn1cc(-c2ccc3nnc(C(F)(F)c4ccc5ncccc5c4)n3n2)cn1 [Compound A, reference compound] | 62.3 ± 47.8 ng·h/mL | 53.7 ± 40.6 ng·h/mL | 27.6 ± 17.4 ng/mL | 0.5 h | 3.24 ± 0.76 h | 8220 ± 5740 ng·h/mL | 8190 ± 5740 ng·h/mL | 1830 ± 1360 ng/mL | 1 h | 5.2 ± 0.9 h | IC50 [1]: 13.8 nM; IC50 [2]: 13.4 nM; half-life [3, 13]: 2.1 ± 0.4 h; toxicity finding in phase I, first-in-human trial [4]: unexpected renal toxicity; pre-clinical toxicity profile [5]: clean toxicity profile; pre-clinical toxicity profile [6]: clean toxicity profile; effect on renal function [7]: did affect renal function; histological analysis of kidney [7]: crystal formation with consequently degenerative and inflammatory changes in the kidney
2 | [2H]c1ccc2cc(C(F)(F)c3nnc4ccc(-c5cnn(C)c5)nn34)ccc2n1 [Compound of formula (I)] | 8570 ± 6440 ng·h/mL | 8460 ± 6520 ng·h/mL | 3570 ± 2320 ng/mL | 0.5 h | 4.6 ± 1 h | – | – | – | – | – | IC50 [1]: 13.2 nM; IC50 [2]: 12 nM; IC50 [8]: 670 ± 20 nM; inhibition of the 14C-Metformin uptake in OCT2 cells (in words) [8]: shows inhibition; cytotoxic effects (in words) [9]: no cytotoxic effects were observed; Cell Viability % [9]: 104%; Cell Viability % [10]: 103%; formation of insoluble/less soluble aldehyde oxidase mediated metabolites [11]: down regulated
3 | O=c1ccc2cc(C(F)(F)c3nnc4ccc(-c5cn[nH]c5)nn34)ccc2[nH]1 [Metabolite 1, 6-{Difluoro[6-(1H-pyrazol-4-yl)[1,2,4]triazolo[4,3-b]pyridazin-3-yl]methyl}quinolin-2(1H)-one] | 409 ± 7 ng·h/mL | – | 57.5 ± 34.2 ng/mL | 2.3 ± 1.5 h | 7 ± 0.7 h | 1050 ± 421 ng·h/mL | 934 ± 336 ng·h/mL | 126 ± 80 ng/mL | 2.7 ± 1.2 h | 7.8 ± 1.4 h | –
4 | Cn1cc(-c2ccc3nnc(C(F)(F)c4ccc5[nH]c(=O)ccc5c4)n3n2)cn1 [Metabolite 2, 6-{Difluoro[6-(1-methyl-1H-pyrazol-4-yl)[1,2,4]triazolo[4,3-b]pyridazin-3-yl]methyl}quinolin-2(1H)-one] | 152 ± 81 ng·h/mL | 127 ± 65 ng·h/mL | 39.8 ± 13.1 ng/mL | 0.8 ± 0.3 h | 3.8 ± 0.7 h | 439 ± 331 ng·h/mL | 341 ± 259 ng·h/mL | 84.4 ± 55.9 ng/mL | 1 h | 5 ± 9 h | solubility ([12]; pH 4.84, aqueous buffer): 1 µg/mL; solubility ([12]; pH 7.33, aqueous buffer): 2 µg/mL; half-life [3, 14]: 3 ± 0.5 h
5 | [2H]c1ccc2cc(C(F)(F)c3nnc4ccc(-c5cn[nH]c5)nn34)ccc2n1 [N-desmethyl metabolite 3] | 2360 ± 450 ng·h/mL | 2310 ± 392 ng·h/mL | 738 ± 447 ng/mL | 1.2 ± 0.8 h | 5.1 ± 0.3 h | – | – | – | – | – | half-life [3, 13]: 4.4 ± 1.9 h
6 | FC(F)(c1ccc2ncccc2c1)c1nnc2ccc(-c3cn[nH]c3)nn12 [N-desmethyl metabolite 4, 6-{Difluoro[6-(1H-pyrazol-4-yl)[1,2,4]triazolo[4,3-b]pyridazin-3-yl]methyl}quinoline] | – | – | – | – | – | 1510 ± 190 ng·h/mL | 1490 ± 193 ng·h/mL | 299 ± 146 ng/mL | 1.3 ± 0.6 h | 5.7 ± 0.9 h | –
7 | C=C[C@H]1C[N@@]2CC[C@H]1C[C@@H]2[C@@H](O)c1ccnc2ccc(OC)cc12 [Quinidine, reference compound] | – | – | – | – | – | – | – | – | – | – | inhibition at 1 min, 300 μM ([8]; human, pH 7.4, inhibition of 14C-Metformin uptake): 85.5%
8 | Triton X-100 [reference compound] | – | – | – | – | – | – | – | – | – | – | cytotoxic effects (in words) [9]: viability dropped dramatically; Cell Viability % [9]: 0%; Cell Viability % [10]: 0%
